According to patent US12435031B2, “Compound with broad-spectrum antibacterial activity and its antibacterial composition” (CHINA AGRICULTURAL UNIVERSITY, priority 2023, dated 2025):
Like-named read-outs stand apart in the source and are kept apart here.

System: Clostridium perfringens
Experiment: microbe, parasite or virus in culture
Type: cell-based
Details: for MIC50 / MIC90 / MIC: Clostridium perfringens
[1] = read-out: MIC value against Clostridium perfringens, strain A3-1 (A-type)
[2] = read-out: MIC value against Clostridium perfringens, strain A3-2 (A-type)
[3] = read-out: MIC value against Clostridium perfringens, strain A57-1 (A-type)
[4] = read-out: MIC value against Clostridium perfringens, strain B4 (B-type)
[5] = read-out: MIC value against Clostridium perfringens, strain B5 (B-type)
[6] = read-out: MIC value against Clostridium perfringens, strain C3 (C-type)
[7] = read-out: MIC value against Clostridium perfringens, strain C8 (C-type)
[8] = read-out: MIC value against Clostridium perfringens, strain C59-1 (C-type)
[9] = read-out: MIC value against Clostridium perfringens, strain D14B (D-type)
[10] = read-out: MIC value against Clostridium perfringens, strain F5-2 (F-type)
[11] = read-out: MIC value against Clostridium perfringens, strain F6-1 (F-type)
[12] = read-out: MIC value against Clostridium perfringens, strain F6-2 (F-type)
[13] = read-out: MIC value against Clostridium perfringens, strain F6-2-1 (F-type)
[14] = read-out: MIC value against Clostridium perfringens, strain F6-2-2 (F-type)
[15] = read-out: MIC value against Clostridium perfringens, strain F7-1 (F-type)
[16] = read-out: MIC value against Clostridium perfringens, strain F8-1 (F-type)
[17] = read-out: MIC value against Clostridium perfringens, strain H12-1 (H-type)
[18] = read-out: MIC value against Clostridium perfringens, strain H12-2 (H-type)
[19] = read-out: MIC value against Clostridium perfringens, strain H13-1 (H-type)
[20] = read-out: MIC value against Clostridium perfringens, strain H14-1 (H-type)
[21] = read-out: MIC value against Clostridium perfringens, strain H14-2 (H-type)
[22] = read-out: MIC value against Clostridium perfringens, strain H14-4 (H-type)
[23] = read-out: MIC value against Clostridium perfringens, strain H15-1 (H-type)
[24] = read-out: MIC value against Clostridium perfringens, strain H15-2 (H-type)
[25] = read-out: MIC value against Clostridium perfringens, strain H15-3 (H-type)
[26] = read-out: MIC value against Clostridium perfringens, strain H16 (H-type)

C[C@H]1c2cccc(O)c2C(=O)C2=C(O)[C@]3(O)C(=O)C(C(N)=O)=C(O)[C@@H](N(C)C)[C@@H]3[C@@H](O)[C@@H]21 [DOX, Doxycycline]
8 µg/mL: MIC50 | MIC [1] | MIC [2] | MIC [5] | MIC [15] | MIC [19] | MIC [20] | MIC [21] | MIC [25] | MIC [26]
4 µg/mL: MIC [10] | MIC [17] | MIC [18] | MIC [22]
≤ 0.25 µg/mL: MIC [3] | MIC [7] | MIC [8]
32 µg/mL: MIC [11]
16 µg/mL: MIC90 | MIC [6] | MIC [12] | MIC [13] | MIC [14] | MIC [16] | MIC [23] | MIC [24]
2 µg/mL: MIC [4]
1 µg/mL: MIC [9]

CCC[C@@H]1C[C@@H](C(=O)N[C@@H]([C@H]2O[C@H](SC)[C@H](O)[C@@H](O)[C@H]2O)[C@@H](C)O)N(C)C1 [LIN, Lincomycin]
64 µg/mL: MIC [9]
4 µg/mL: MIC [19] | MIC [22] | MIC [24] | MIC [25] | MIC [26]
> 128 µg/mL: MIC90 | MIC [4] | MIC [5] | MIC [6] | MIC [15] | MIC [16]
8 µg/mL: MIC50 | MIC [20] | MIC [21]
1 µg/mL: MIC [1]
2 µg/mL: MIC [3]
32 µg/mL: MIC [11] | MIC [12]
128 µg/mL: MIC [7] | MIC [10] | MIC [13] | MIC [14]
≤ 0.25 µg/mL: MIC [18] | MIC [23]
0.5 µg/mL: MIC [2] | MIC [8] | MIC [17]

Cc1c(C(=O)C=Cc2ccccc2)[n+](=O)c2ccccc2n1[O-] [QCT, Quincetone]
4 µg/mL: MIC value against Clostridium perfringens (strain F6-1 (F-type))
1 µg/mL: MIC value against Clostridium perfringens (strain C3 (C-type)) | MIC value against Clostridium perfringens (strain F6-2-1 (F-type))
≤0.25 µg/mL: MIC value against Clostridium perfringens (strain A3-2 (A-type)) | MIC value against Clostridium perfringens (strain A57-1 (A-type)) | MIC value against Clostridium perfringens (strain B4 (B-type)) | MIC value against Clostridium perfringens (strain B5 (B-type)) | MIC value against Clostridium perfringens (strain C8 (C-type)) | MIC value against Clostridium perfringens (strain C59-1 (C-type)) | MIC value against Clostridium perfringens (strain D14B (D-type)) | MIC value against Clostridium perfringens (strain F6-2-2 (F-type)) | MIC value against Clostridium perfringens (strain F7-1 (F-type)) | MIC value against Clostridium perfringens (strain H12-1 (H-type)) | MIC value against Clostridium perfringens (strain H12-2 (H-type)) | MIC value against Clostridium perfringens (strain H13-1 (H-type)) | MIC value against Clostridium perfringens (strain H14-1 (H-type)) | MIC value against Clostridium perfringens (strain H14-4 (H-type)) | MIC value against Clostridium perfringens (strain H15-1 (H-type)) | MIC value against Clostridium perfringens (strain H15-2 (H-type)) | MIC value against Clostridium perfringens (strain H16 (H-type))
0.5 µg/mL: MIC value against Clostridium perfringens (strain A3-1 (A-type)) | MIC value against Clostridium perfringens (strain F5-2 (F-type)) | MIC value against Clostridium perfringens (strain F6-2 (F-type)) | MIC value against Clostridium perfringens (strain F8-1 (F-type)) | MIC value against Clostridium perfringens (strain H14-2 (H-type)) | MIC value against Clostridium perfringens (strain H15-3 (H-type))
